Active and inactive are the calls of the source. The rule behind the calls is not given here.
Legend:
MDA-MB-231 [1] = assay: Induction of cell cycle arrest in human MDA-MB-231 cells assessed as proportion of cells at G1 phase at 0.1 uM incubated for 24 hrs by propidium iodide staining based flow cytometry (reference value: 59.5%); format: functional
MDA-MB-231 [2] = assay: Inhibition of cell invasion in human MDA-MB-231 cells assessed as decrease in number of invading cells at 0.1 uM incubated for 16 hrs by matrigel coated transwell assay; format: functional, cell-based
MDA-MB-231 [3] = assay: Induction of apoptosis in human MDA-MB-231 cells assessed as proportion of early apoptotic cells at 0.5 uM incubated for 36 hrs by AnnexinV-FITC/PI staining based flow cytometry (reference value: 5.05%); format: functional
MDA-MB-231 [4] = assay: Induction of apoptosis in human MDA-MB-231 cells assessed as proportion of viable cells at 0.5 uM incubated for 36 hrs by AnnexinV-FITC/PI staining based flow cytometry (reference value: 93.6%); format: functional
MDA-MB-231 [5] = assay: Induction of cell cycle arrest in human MDA-MB-231 cells assessed as proportion of cells at G2 phase at 0.1 uM incubated for 24 hrs by propidium iodide staining based flow cytometry (reference value: 11.6%); format: functional
MCF7 = assay: Antiproliferative activity against human MCF7 cells assessed as inhibition of cell viability incubated for 3 to 4 days by CCK8 assay; format: functional, cell-based; settings: time 3-4 day
MDA-MB-231 [6] = assay: Induction of apoptosis in human MDA-MB-231 cells assessed as proportion of late apoptotic cells at 0.5 uM incubated for 36 hrs by AnnexinV-FITC/PI staining based flow cytometry (reference value: […]%); format: functional
CWR22R = assay: Antiproliferative activity against human 22Rv1 cells assessed as inhibition of cell viability incubated for 3 to 4 days by CCK8 assay; format: functional, cell-based; settings: time 3-4 day
MDA-MB-231 [7] = assay: cells; settings: Homo sapiens, MDA-MB-231, 72 h
Description: Antiproliferative activity against human MDA-MB-231 cells assessed as inhibition of cell viability incubated for 72 hrs by CCK8 assay

MDA-MB-231 [8] = assay: Antitumor activity against human MDA-MB-231 cells xenografted in NOD-SCID mouse assessed as inhibition of tumor growth at 30 mg/kg, po administered 5 days per week for 27 days; format: functional; settings: MDA-MB-231, 648 h, time 27 day, read-out: TGI
MDA-MB-231 [9] = assay: Induction of cell cycle arrest in human MDA-MB-231 cells assessed as increase in p21 expression at 0.1 uM incubated for 24 hrs by western blot analysis; format: functional, cell-based
MDA-MB-231 [10] = assay: Induction of cell cycle arrest in human MDA-MB-231 cells assessed as downregulation of cyclin B1 expression at 0.1 uM incubated for 24 hrs by western blot analysis; format: functional, cell-based
MDA-MB-231 [11] = assay: Induction of cell cycle arrest in human MDA-MB-231 cells assessed as decrease in cyclin D1 expression at 0.1 uM incubated for 24 hrs by western blot analysis; format: functional, cell-based
MDA-MB-231 [12] = assay: Induction of apoptosis in human MDA-MB-231 cells assessed as proportion of necrotic cells at 0.5 uM incubated for 36 hrs by AnnexinV-FITC/PI staining based flow cytometry (reference value: 0%); format: functional
MDA-MB-231 [13] = assay: Induction of cell cycle arrest in human MDA-MB-231 cells assessed as proportion of cells at S phase at 0.1 uM incubated for 24 hrs by propidium iodide staining based flow cytometry (reference value: 28.2%); format: functional
A549 = assay: Antiproliferative activity against human A549 cells assessed as inhibition of cell viability incubated for 3 to 4 days by CCK8 assay; format: functional, cell-based; settings: time 3-4 day
MDA-MB-231 [14] = assay: Inhibition of cell migration in human MDA-MB-231 cells at 0.05 uM incubated for 12 hrs by wound healing assay; format: functional, cell-based
MDA-MB-231 [15] = assay: Induction of cell cycle arrest in human MDA-MB-231 cells assessed as proportion of cells at S phase at 0.2 uM incubated for 24 hrs by propidium iodide staining based flow cytometry (reference value: 28.2%); format: functional
MDA-MB-231 [16] = assay: Induction of cell cycle arrest in human MDA-MB-231 cells assessed as downregulation of cyclin B1 expression at 0.1 to 0.2 uM incubated for 24 hrs by western blot analysis; format: functional, cell-based; settings: dose 0.1-0.2 µM
[17] = Toxicity against NOD-SCID mouse xenografted with human MDA-MB-231 cells assessed as adverse effects at 15 mg/kg, ip administered 5 days per week for 27 days; format: organism-based; settings: in vivo, 648 h, time 27 day
MDA-MB-231 [18] = assay: Induction of apoptosis in human MDA-MB-231 cells assessed as proportion of early apoptotic cells at 1 uM incubated for 36 hrs by AnnexinV-FITC/PI staining based flow cytometry (reference value: 5.05%); format: functional
MDA-MB-231 [19] = assay: Antitumor activity against human MDA-MB-231 cells xenografted in NOD-SCID mouse assessed as inhibition of tumor growth at 15 mg/kg, ip administered 5 days per week for 27 days; format: functional; settings: MDA-MB-231, 648 h, time 27 day, read-out: TGI
MDA-MB-231 [20] = assay: Induction of apoptosis in human MDA-MB-231 cells assessed as proportion of necrotic cells at 1 uM incubated for 36 hrs by AnnexinV-FITC/PI staining based flow cytometry (reference value: 0%); format: functional
MDA-MB-231 [21] = assay: Induction of apoptosis in human MDA-MB-231 cells assessed as increase in cleaved caspase-3 expression at 0.5 uM incubated for 36 hrs by western blot analysis; format: functional, cell-based
MDA-MB-231 [22] = assay: Induction of apoptosis in human MDA-MB-231 cells assessed as increase in cleaved caspase-9 expression at 0.5 uM incubated for 36 hrs by western blot analysis; format: functional, cell-based
MDA-MB-231 [23] = assay: Induction of apoptosis in human MDA-MB-231 cells assessed as proportion of late apoptotic cells at 1 uM incubated for 36 hrs by AnnexinV-FITC/PI staining based flow cytometry (reference value: […]%); format: functional
MDA-MB-231 [24] = assay: Induction of cell cycle arrest in human MDA-MB-231 cells assessed as proportion of cells at G2 phase at 0.2 uM incubated for 24 hrs by propidium iodide staining based flow cytometry (reference value: 11.6%); format: functional
MDA-MB-231 [25] = assay: Induction of cell cycle arrest in human MDA-MB-231 cells assessed as decrease in cyclin E1 expression at 0.1 to 0.2 uM incubated for 24 hrs by western blot analysis; format: functional, cell-based; settings: dose 0.1-0.2 µM
MDA-MB-231 [26] = assay: Antitumor activity against human MDA-MB-231 cells xenografted in NOD-SCID mouse assessed as inhibition of tumor growth at 20 mg/kg, ip qd for 10 days; format: functional; settings: MDA-MB-231, 240 h, time 10 day, read-out: TGI
MDA-MB-231 [27] = assay: Induction of cell cycle arrest in human MDA-MB-231 cells assessed as proportion of cells at G1 phase at 0.2 uM incubated for 24 hrs by propidium iodide staining based flow cytometry (reference value: 59.5%); format: functional
MDA-MB-231 [28] = assay: Antitumor activity against human MDA-MB-231 cells xenografted in NOD-SCID mouse assessed as reduction in tumor weight at 15 mg/kg, ip administered 5 days per week for 27 days; format: functional; settings: MDA-MB-231, 648 h, time 27 day
MDA-MB-231 [29] = assay: Induction of cell cycle arrest in human MDA-MB-231 cells assessed as increase in p21 expression at 0.1 to 0.2 uM incubated for 24 hrs by western blot analysis; format: functional, cell-based; settings: dose 0.1-0.2 µM
MDA-MB-231 [30] = assay: Induction of apoptosis in human MDA-MB-231 cells assessed as proportion of viable cells at 1 uM incubated for 36 hrs by AnnexinV-FITC/PI staining based flow cytometry (reference value: 93.6%); format: functional
MDA-MB-231 [31] = assay: Induction of apoptosis in human MDA-MB-231 cells assessed as increase in cleaved PARP-1 expression at 0.5 uM incubated for 36 hrs by western blot analysis; format: functional, cell-based
[32] = Toxicity against NOD-SCID mouse xenografted with human MDA-MB-231 cells assessed as effect on body weight at 15 mg/kg, ip administered 5 days per week for 27 days; format: organism-based; settings: in vivo, 648 h, time 27 day
MDA-MB-231 [33] = assay: Antitumor activity against human MDA-MB-231 cells xenografted in NOD-SCID mouse assessed as inhibition of tumor growth at 30 mg/kg, ip administered 5 days per week for 27 days; format: functional; settings: time 27 day
MDA-MB-231 [34] = assay: Induction of cell cycle arrest in human MDA-MB-231 cells assessed as […] in cyclin D1 expression at 0.1 uM incubated for 24 hrs by western blot analysis; format: functional, cell-based
[35] = target: Bromodomain-containing protein 4 (Homo sapiens, UniProt O60885); assay: Inhibition of His6-tagged recombinant BRD4 BD1 domain (44 to 168 residues) (unknown origin) expressed in Escherichia coli BL21(DE3) incubated for 0.5 hrs by FITC-labeled JQ1 based competitive fluorescence polarization assay

Row | Structure (SMILES) | Activity (MDA-MB-231 [1]) | inhibition (MDA-MB-231 [2]) | Activity (MDA-MB-231 [3]) | Activity (MDA-MB-231 [4]) | Activity (MDA-MB-231 [5]) | Activity (MCF7) | Activity (MDA-MB-231 [6]) | Activity (CWR22R) | IC50 (MDA-MB-231 [7]) | Activity (MDA-MB-231 [9]) | Activity (MDA-MB-231 [10]) | Activity (MDA-MB-231 [12]) | Activity (MDA-MB-231 [13]) | Activity (A549) | inhibition (MDA-MB-231 [14]) | other results
1 | Cc1nc(Nc2ncc(C(=O)Nc3c(C)cccc3Cl)s2)cc(N2CCN(CCO)CC2)n1 [DASATINIB ANHYDROUS] | 74.5% | Active | 14.6% | 80.9% | 7.75% | Active | 4.45% | Active | 157 nM | Active | Active | 0.002% | 15.8% | Active | Active | inhibition in vivo at 30 mg/kg (MDA-MB-231 [8]): 44.7%; Activity (MDA-MB-231 [11]): Active
2 | Cc1nc(Nc2ncc(C(=O)Nc3c(C)cccc3Cl)s2)cc(N2CCN(CCOC(=O)C(C)NC(=O)C[C@@H]3N=C(c4ccc(Cl)cc4)c4c(sc(C)c4C)-n4c(C)nnc43)CC2)n1 (some centres not stated) | 80.4% |  | 22.9% | 71.1% | 6.47% | Active | 6.01% | Active | 34 nM |  |  | 0% | 12.8% | Active |  | Activity (MDA-MB-231 [15]): 10.1%; Activity (MDA-MB-231 [16]): Active; Activity [17]: Non-Toxic; Activity (MDA-MB-231 [18]): 16.5%; inhibition in vivo at 15 mg/kg (MDA-MB-231 [19]): 70.7%; Activity (MDA-MB-231 [20]): 0%; Activity (MDA-MB-231 [21]): Active; Activity (MDA-MB-231 [22]): Active; Activity (MDA-MB-231 [23]): 7.14%; Activity (MDA-MB-231 [24]): 4.96%; Activity (MDA-MB-231 [25]): Active; inhibition in vivo at 20 mg/kg (MDA-MB-231 [26]): 75.4%; Activity (MDA-MB-231 [27]): 84.4%; inhibition in vivo at 15 mg/kg (MDA-MB-231 [28]): 66.1%; Activity (MDA-MB-231 [29]): Active; Activity (MDA-MB-231 [30]): 76.3%; Activity (MDA-MB-231 [31]): Active; Activity [32]: Non-Toxic
3 | Cc1sc2c(c1C)C(c1ccc(Cl)cc1)=N[C@@H](CC(=O)OC(C)(C)C)c1nnc(C)n1-2 | 73.3% | inactive | 13.3% | 83.8% | 8.53% |  | 2.9% |  | 896 nM | Active | Active | 0% | 17.5% |  | Active | TGI (MDA-MB-231 [33]): 63.6%; Activity (MDA-MB-231 [34]): Active
4 | Cc1nc(Nc2ncc(C(=O)Nc3c(C)cccc3Cl)s2)cc(N2CCN(CCOC(=O)[C@@H]3CCCCN3C(=O)C[C@@H]3N=C(c4ccc(Cl)cc4)c4c(sc(C)c4C)-n4c(C)nnc43)CC2)n1 |  |  |  |  |  |  |  |  | 240 nM |  |  |  |  |  |  | IC50 [35]: > 1000 nM

Source: ChEMBL document CHEMBL5528017, “Design and synthesis of dual BRD4/Src inhibitors for treatment of triple-negative breast cancer” (Eur J Med Chem, 2024)
